From ChEMBL document CHEMBL1649554, “Specific therapeutic schemes of omeprazole affect the orientation of Helicobacter pylori” (Antimicrob Agents Chemother, 2009)
Calls of active or inactive are those of the source. The rule behind the calls is not given here.

Assays:
Helicobacter pylori [1] = assay: Antibacterial activity against Helicobacter pylori SS1 infected in Mongolian gerbils assessed as bacterial disorientation in central mucus layer at 0.25 mg, ip administered as two doses in 8 hrs dosing interval measured after 90 mins post last dose; format: functional, organism-based
Helicobacter pylori [2] = assay: Antibacterial activity against Helicobacter pylori SS1 infected in Mongolian gerbils assessed as bacterial disorientation in 15 to 25 um above the Juxtamucosal layer at 0.25 mg, ip administered as two doses in 24 hrs dosing interval measured after 90 mins post last dose; format: functional, organism-based
Helicobacter pylori [3] = assay: Antibacterial activity against Helicobacter pylori SS1 infected in Mongolian gerbils assessed as bacterial density in mucus in 15 to 25 um above the Juxtamucosal layer at 0.25 mg, ip administered as two doses of solvent in 24 hrs dosing interval measured after 90 mins post last dose (reference value: 2280+/-430 bacteria per nl of mucus); format: functional
Helicobacter pylori [4] = assay: Antibacterial activity against Helicobacter pylori SS1 infected in Mongolian gerbils assessed as bacterial density in mucus in 0 to 15 um above the Juxtamucosal layer at 0.25 mg, ip followed by second dose administered as solvent in 24 hrs dosing interval measured after 90 mins post last dose (reference value: 4560+/-400 bacteria per nl of mucus); format: functional
Helicobacter pylori [5] = assay: Antibacterial activity against Helicobacter pylori SS1 infected in Mongolian gerbils assessed as bacterial density in mucus in central mucus layer at 0.25 mg, ip administered as two doses in 24 hrs dosing interval measured after 90 mins post last dose (reference value: 90+/-60 bacteria per nl of mucus); format: functional
Helicobacter pylori [6] = assay: Antibacterial activity against Helicobacter pylori SS1 infected in Mongolian gerbils assessed as bacterial disorientation in luminal mucus layer at 0.25 mg, ip administered as two doses in 24 hrs dosing interval measured after 90 mins post last dose; format: functional, organism-based
Helicobacter pylori [7] = assay: Antibacterial activity against Helicobacter pylori SS1 infected in Mongolian gerbils assessed as bacterial density in mucus in 15 to 25 um above the Juxtamucosal layer at 0.25 mg, ip followed by second dose administered as solvent in 24 hrs dosing interval measured after 90 mins post last dose (reference value: 2280+/-430 bacteria per nl of mucus); format: functional
Helicobacter pylori [8] = assay: Antibacterial activity against Helicobacter pylori SS1 infected in Mongolian gerbils assessed as bacterial density in mucus in luminal mucus layer at 0.25 mg, ip administered as two doses of solvent in 24 hrs dosing interval measured after 90 mins post last dose (reference value: 60+/-50 bacteria per nl of mucus); format: functional
Helicobacter pylori [9] = assay: Antibacterial activity against Helicobacter pylori SS1 infected in Mongolian gerbils assessed as bacterial density in mucus in central mucus layer at 0.25 mg, ip administered as two doses in 8 hrs dosing interval measured after 90 mins post last dose (reference value: 90+/-60 bacteria per nl of mucus); format: functional
Helicobacter pylori [10] = assay: Antibacterial activity against Helicobacter pylori SS1 infected in Mongolian gerbils assessed as bacterial orientation in luminal mucus layer at 0.25 mg, ip administered as two subsequent doses in 8 hrs dosing interval; format: functional, organism-based
Helicobacter pylori [11] = assay: Antibacterial activity against Helicobacter pylori SS1 infected in Mongolian gerbils assessed as bacterial density in mucus in 15 to 25 um above the Juxtamucosal layer at 100 uM, ip administered as single dose through dialysis measured after 90 mins post last dose; format: functional
Helicobacter pylori [12] = assay: Antibacterial activity against Helicobacter pylori SS1 infected in Mongolian gerbils assessed as bacterial density in mucus in central mucus layer at 0.25 mg, ip followed by second dose administered as solvent in 24 hrs dosing interval measured after 90 mins post last dose (reference value: 90+/-60 bacteria per nl of mucus); format: functional
Helicobacter pylori [13] = assay: Antibacterial activity against Helicobacter pylori SS1 infected in Mongolian gerbils assessed as bacterial disorientation in luminal mucus layer at 20 uM, ip administered as single dose through dialysis measured after 90 mins post last dose; format: functional, organism-based
Helicobacter pylori [14] = assay: Antibacterial activity against Helicobacter pylori SS1 infected in Mongolian gerbils assessed as bacterial disorientation in luminal mucus layer at 0.25 mg, ip administered as two doses of solvent measured after 90 mins post last dose (reference value: 4560+/-400 bacteria per nl of mucus); format: functional, organism-based
Helicobacter pylori [15] = assay: Antibacterial activity against Helicobacter pylori SS1 infected in Mongolian gerbils assessed as bacterial disorientation in 0 to 15 um above the Juxtamucosal layer at 20 uM, ip administered as single dose through dialysis measured after 90 mins post last dose; format: functional, organism-based
Helicobacter pylori [16] = assay: Antibacterial activity against Helicobacter pylori SS1 infected in Mongolian gerbils assessed as bacterial orientation in 15 to 25 um above the Juxtamucosal layer at 35 ug/ml administered as single dose in 8 hrs dosing interval; format: functional, organism-based
Helicobacter pylori [17] = assay: Antibacterial activity against Helicobacter pylori SS1 infected in Mongolian gerbils assessed as bacterial orientation in luminal mucus layer at 35 ug/ml administered as single dose in 8 hrs dosing interval; format: functional, organism-based
Helicobacter pylori [18] = assay: Antibacterial activity against Helicobacter pylori SS1 infected in Mongolian gerbils assessed as bacterial orientation in 0 to 15 um above the Juxtamucosal layer at 35 ug/ml administered as single dose in 8 hrs dosing interval; format: functional, organism-based
Helicobacter pylori [19] = assay: Antibacterial activity against Helicobacter pylori SS1 infected in Mongolian gerbils assessed as bacterial disorientation in 0 to 15 um above the Juxtamucosal layer at 0.25 mg, ip administered as two doses in 8 hrs dosing interval measured after 90 mins post last dose; format: functional, organism-based
Helicobacter pylori [20] = assay: Antibacterial activity against Helicobacter pylori SS1 infected in Mongolian gerbils assessed as bacterial disorientation in 0 to 15 um above the Juxtamucosal layer at 0.25 mg, ip administered as two doses in 24 hrs dosing interval measured after 90 mins post last dose; format: functional, organism-based
Helicobacter pylori [21] = assay: Antibacterial activity against Helicobacter pylori SS1 infected in Mongolian gerbils assessed as bacterial disorientation in 15 to 25 um above the Juxtamucosal layer at 0.25 mg, ip administered as two doses of solvent measured after 90 mins post last dose (reference value: 4560+/-400 bacteria per nl of mucus); format: functional, organism-based
Helicobacter pylori [22] = assay: Antibacterial activity against Helicobacter pylori SS1 infected in Mongolian gerbils assessed as decrease in bacterial density in mucus in 15 to 25 um above the Juxtamucosal layer at 0.25 mg, ip administered as single dose for 5 days measured after 90 mins post last dose; format: functional; design: scale not given: the % may be the effect or the level left
Helicobacter pylori [23] = assay: Antibacterial activity against Helicobacter pylori SS1 infected in Mongolian gerbils assessed as bacterial orientation in 0 to 15 um above the Juxtamucosal layer at 0.25 mg, ip administered as two subsequent doses in 8 hrs dosing interval; format: functional, organism-based
Helicobacter pylori [24] = assay: Antibacterial activity against Helicobacter pylori SS1 infected in Mongolian gerbils assessed as bacterial disorientation in 0 to 15 um above the Juxtamucosal layer at 0.25 mg, ip administered as two doses of solvent measured after 90 mins post last dose (reference value: 4560+/-400 bacteria per nl of mucus); format: functional, organism-based
Helicobacter pylori [25] = assay: Antibacterial activity against Helicobacter pylori SS1 infected in Mongolian gerbils assessed as decrease in bacterial density in mucus in 0 to 15 um above the Juxtamucosal layer at 0.25 mg, ip administered as single dose for 5 days measured after 90 mins post last dose; format: functional; design: scale not given: the % may be the effect or the level left
Helicobacter pylori [26] = assay: Antibacterial activity against Helicobacter pylori SS1 infected in Mongolian gerbils assessed as bacterial disorientation in 15 to 25 um above the Juxtamucosal layer at 0.25 mg, ip administered as two doses in 8 hrs dosing interval measured after 90 mins post last dose; format: functional, organism-based

In the case of COc1ccc2[nH]c([S+]([O-])Cc3ncc(C)c(OC)c3C)nc2c1 (stereo unspecified) [OMEPRAZOLE], the Activity (Helicobacter pylori [1]) is reported as “inactive”, the Activity (Helicobacter pylori [2]) is reported as “Active” and the Activity (Helicobacter pylori [3]) is reported as 2260 nL⁻¹. The Activity (Helicobacter pylori [4]) was 4790 nL⁻¹, the Activity (Helicobacter pylori [5]) was 300 nL⁻¹ and the Activity (Helicobacter pylori [6]) was “inactive”. It also gave an Activity (Helicobacter pylori [7]) of 2030 nL⁻¹, an Activity (Helicobacter pylori [8]) of 70 nL⁻¹ and an Activity (Helicobacter pylori [9]) of 30 nL⁻¹. For the same molecule, the Activity (Helicobacter pylori [10]) was “inactive”, the Activity (Helicobacter pylori [11]) was 330 nL⁻¹ and the Activity (Helicobacter pylori [12]) was 140 nL⁻¹. The Activity (Helicobacter pylori [13]) was “inactive”, the Activity (Helicobacter pylori [14]) was “inactive” and the Activity (Helicobacter pylori [15]) was “Active”. For the same molecule, the Activity (Helicobacter pylori [16]) was “inactive”, the Activity (Helicobacter pylori [17]) was “inactive” and the Activity (Helicobacter pylori [18]) was “inactive”. The Activity (Helicobacter pylori [19]) was “Active”, the Activity (Helicobacter pylori [20]) was “Active” and the Activity (Helicobacter pylori [21]) was “inactive”. The Activity (Helicobacter pylori [22]) was 5%, the Activity (Helicobacter pylori [23]) was “inactive” and the Activity (Helicobacter pylori [24]) was “Active”. For the same molecule, the Activity (Helicobacter pylori [25]) was 5% and the Activity (Helicobacter pylori [26]) was “inactive”.
